These results are taken from ChEMBL document CHEMBL1681756, “Synthesis and evaluation of novel pyrimidine-based dual EGFR/Her-2 inhibitors” (Bioorg Med Chem Lett, 2011).

SMILES strings stand for the structures.

In series [1] the target is Receptor tyrosine-protein kinase erbB-2 (Homo sapiens, UniProt P04626). Description: Inhibition of HER2 by homogeneous time-resolved fluorescence assay.
The target in series [2] is Epidermal growth factor receptor (Homo sapiens, UniProt P00533). Description: Inhibition of EGFR by homogeneous time-resolved fluorescence assay.
Chain of Epidermal growth factor receptor (P00533 whole entry): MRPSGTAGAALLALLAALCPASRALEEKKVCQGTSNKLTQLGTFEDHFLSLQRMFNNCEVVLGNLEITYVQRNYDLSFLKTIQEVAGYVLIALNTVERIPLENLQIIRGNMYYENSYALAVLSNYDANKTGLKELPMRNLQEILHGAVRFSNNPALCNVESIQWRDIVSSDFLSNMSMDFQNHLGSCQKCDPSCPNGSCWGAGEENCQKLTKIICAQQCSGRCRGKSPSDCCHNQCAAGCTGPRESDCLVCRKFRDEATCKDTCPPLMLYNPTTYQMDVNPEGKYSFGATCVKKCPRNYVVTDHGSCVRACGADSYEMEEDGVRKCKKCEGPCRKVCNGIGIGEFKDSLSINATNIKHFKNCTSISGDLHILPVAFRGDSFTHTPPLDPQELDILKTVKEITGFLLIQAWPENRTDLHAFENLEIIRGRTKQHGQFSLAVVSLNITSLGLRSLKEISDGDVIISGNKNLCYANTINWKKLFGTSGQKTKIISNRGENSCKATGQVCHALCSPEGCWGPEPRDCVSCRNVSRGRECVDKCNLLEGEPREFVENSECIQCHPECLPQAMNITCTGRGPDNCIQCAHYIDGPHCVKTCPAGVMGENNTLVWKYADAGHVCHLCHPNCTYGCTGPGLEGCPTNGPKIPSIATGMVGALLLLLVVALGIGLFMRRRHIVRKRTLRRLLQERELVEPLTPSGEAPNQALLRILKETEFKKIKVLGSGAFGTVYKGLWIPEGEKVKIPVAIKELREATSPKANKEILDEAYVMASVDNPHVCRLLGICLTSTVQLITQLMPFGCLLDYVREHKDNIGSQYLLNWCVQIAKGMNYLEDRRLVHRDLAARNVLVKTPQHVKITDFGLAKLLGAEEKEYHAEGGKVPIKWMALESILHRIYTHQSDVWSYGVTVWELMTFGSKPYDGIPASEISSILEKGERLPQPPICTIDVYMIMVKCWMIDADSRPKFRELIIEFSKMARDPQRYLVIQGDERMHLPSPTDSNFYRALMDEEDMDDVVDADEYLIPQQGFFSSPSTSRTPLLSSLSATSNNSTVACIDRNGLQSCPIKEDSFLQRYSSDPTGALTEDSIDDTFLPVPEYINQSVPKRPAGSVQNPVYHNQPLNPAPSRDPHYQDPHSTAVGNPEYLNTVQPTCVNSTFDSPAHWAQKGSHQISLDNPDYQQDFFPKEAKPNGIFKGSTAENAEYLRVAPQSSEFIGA
In series [3] the test system is BT-474. Description: Antiproliferative activity against human BT474 cells by methylene blue staining method.
Series [4] in a line: Lipophilicity log P of the compound. The class given is physicochemical. To be noted: octanol/water.
Series [5] in a line: Aqueous solubility of the compound at pH 6.8. The format is physicochemical.

Chain of Receptor tyrosine-protein kinase erbB-2 (P04626 whole entry): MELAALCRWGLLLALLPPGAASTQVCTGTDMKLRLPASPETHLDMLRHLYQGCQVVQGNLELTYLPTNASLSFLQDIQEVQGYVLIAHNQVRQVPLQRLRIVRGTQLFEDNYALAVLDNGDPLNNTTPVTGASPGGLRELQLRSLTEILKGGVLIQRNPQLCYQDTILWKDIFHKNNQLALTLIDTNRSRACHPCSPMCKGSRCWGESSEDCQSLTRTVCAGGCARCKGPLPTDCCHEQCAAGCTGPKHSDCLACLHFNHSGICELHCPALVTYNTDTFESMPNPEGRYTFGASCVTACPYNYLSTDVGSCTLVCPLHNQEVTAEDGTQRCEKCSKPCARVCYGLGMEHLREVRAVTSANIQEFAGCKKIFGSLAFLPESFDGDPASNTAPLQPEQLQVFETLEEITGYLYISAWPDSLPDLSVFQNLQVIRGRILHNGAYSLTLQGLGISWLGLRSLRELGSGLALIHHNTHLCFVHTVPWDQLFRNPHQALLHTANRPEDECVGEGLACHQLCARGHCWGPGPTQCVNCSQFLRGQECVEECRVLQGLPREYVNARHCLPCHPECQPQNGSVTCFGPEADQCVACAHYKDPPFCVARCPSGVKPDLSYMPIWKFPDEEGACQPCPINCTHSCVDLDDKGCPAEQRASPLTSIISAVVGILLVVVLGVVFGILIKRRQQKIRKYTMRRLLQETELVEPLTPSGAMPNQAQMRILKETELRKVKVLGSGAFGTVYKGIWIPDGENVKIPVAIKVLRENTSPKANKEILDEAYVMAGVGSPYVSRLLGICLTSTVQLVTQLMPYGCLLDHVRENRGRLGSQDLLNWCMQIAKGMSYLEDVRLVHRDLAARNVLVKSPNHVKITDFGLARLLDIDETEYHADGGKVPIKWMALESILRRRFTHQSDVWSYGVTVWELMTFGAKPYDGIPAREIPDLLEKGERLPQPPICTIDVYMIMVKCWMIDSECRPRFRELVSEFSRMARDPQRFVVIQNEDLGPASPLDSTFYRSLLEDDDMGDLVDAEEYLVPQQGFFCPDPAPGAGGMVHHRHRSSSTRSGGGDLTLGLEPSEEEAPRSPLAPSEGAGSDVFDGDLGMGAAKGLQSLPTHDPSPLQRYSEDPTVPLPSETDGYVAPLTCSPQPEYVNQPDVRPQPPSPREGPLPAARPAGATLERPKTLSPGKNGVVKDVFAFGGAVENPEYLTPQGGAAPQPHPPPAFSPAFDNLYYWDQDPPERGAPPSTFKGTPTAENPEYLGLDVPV

By IC50 is commonly meant the concentration that gives 50% inhibition. As to `Cc1ncnc(Nc2ccc(OCc3cccc(F)c3)c(Cl)c2)c1C#C/C=N/OCCN1CCOCC1`, the IC50 in series [1] worked out at 0.07 µM; in series [2] it was 0.038 µM.

For `Cc1ncnc(Nc2ccc(OCc3cccc(F)c3)c(Cl)c2)c1C#CCCCN1CCOCC1`, the IC50 in series [1] was 0.15 µM; in series [2] it was 0.034 µM.

As to `Fc1cccc(COc2ccc(Nc3cc(-c4ccccc4)ncn3)cc2Cl)c1`, the values for the IC50 in series [1] and in series [2] were 6.3 µM and 1.2 µM, respectively.

`Cc1ncnc(Nc2ccc(OCc3cccc(F)c3)c(Cl)c2)c1C`: the figures for the IC50 in series [1] and in series [2] were 0.14 µM and 0.017 µM, respectively.

As for `Cc1ncnc(Nc2ccc(OCc3cccc(F)c3)c(Cl)c2)c1/C=N/OCCN1CCOCC1`, the concentration for half-maximal inhibition (IC50) in series [1] turned out to be 0.74 µM; in series [2] it was 0.068 µM.

The compound `Cc1ncnc(Nc2ccc(OCc3cccc(F)c3)c(Cl)c2)c1C#CCCCN1CCCC1` had an IC50 in series [1] of 0.095 µM.

Regarding `CCc1ncnc(Nc2ccc(OCc3cccc(F)c3)c(Cl)c2)c1C`, the IC50 in series [1] amounted to 2.9 µM; in series [2], 0.64 µM.

As to `Fc1cccc(COc2ccc(Nc3ccncn3)cc2Cl)c1`, the IC50 is 25 µM in series [1] and 0.92 µM in series [2].

With `Cc1ncnc(Nc2ccc(OCc3cccc(F)c3)c(Cl)c2)c1/C=C(\F)C(=O)NCCN1CCOCC1`, the concentration for half-maximal inhibition (IC50) in series [1] was determined as 0.078 µM.

Turning to `Cc1ncnc(Nc2ccc(OCc3cccc(F)c3)c(Cl)c2)c1C#CCCN1CCOCC1`, the IC50 in series [1] came to 0.074 µM; in series [2], 0.013 µM.

Consider `Cc1c(Nc2ccc(OCc3cccc(F)c3)c(Cl)c2)ncnc1-c1ccccc1`, for which the IC50 in series [1] was found to be 65 µM; in series [2] it was 20 µM.

As to `Cc1ncnc(Nc2ccc(OCc3cccc(F)c3)c(Cl)c2)c1-c1cccc(CN2CCOCC2)c1`, the IC50 in series [1] was 3.75 µM; in series [2], 0.59 µM.

As for `CCN1CCN(C(=O)/C(F)=C/c2c(C)ncnc2Nc2ccc(OCc3cccc(F)c3)c(Cl)c2)CC1`, the concentration for half-maximal inhibition (IC50) in series [1] turned out to be 0.102 µM; in series [2], 0.156 µM.

Consider `Cc1ncnc(Nc2ccc(OCc3cccc(F)c3)c(Cl)c2)c1C#CCN1CCOCC1`, for which the 50% inhibitory concentration (IC50) in series [1] stood at 5.38 µM; in series [2] it was 4.13 µM.

As a reminder, the logP is the decadic logarithm of the partition coefficient of the neutral form, usually between octanol and water. Low readings indicate lower lipophilicity, high ones higher lipophilicity. Turning to `Cc1ncnc(Nc2ccc(OCc3cccc(F)c3)c(Cl)c2)c1/C=C/c1ccc(CN2CCOCC2)cc1`, the IC50 was determined as 0.19 µM in series [1], 0.12 µM in series [2] and 0.644 µM in series [3]. The logP in series [4] was found to be 7.73.

Consider `Cc1ncnc(Nc2ccc(OCc3cccc(F)c3)c(Cl)c2)c1/C=C/C(=O)NCCN1CCOCC1`, for which the IC50 was 0.318 µM in series [1] and 0.114 µM in series [2].

Regarding `Fc1cccc(COc2ccc(Nc3cc(-c4ccsc4)ncn3)cc2Cl)c1`, it took 36 µM to reach half-maximal inhibition in series [1] (IC50).

As to `Cc1ncnc(Nc2ccc(OCc3cccc(F)c3)c(Cl)c2)c1/C=N/OCCCN1CCOCC1`, the results for the IC50 in series [1] and in series [2] were 1.8 µM and 0.065 µM, respectively.

As to `Fc1cccc(COc2ccc(Nc3cc(N4CCCC4)ncn3)cc2Cl)c1`, the IC50 in series [1] and in series [2] was over 100 µM throughout.

On to `Fc1cccc(COc2ccc(Nc3cc(Oc4ccccc4)ncn3)cc2Cl)c1`, for which the figures for the IC50 in series [1] and in series [2] were over 100 µM and 10 µM, respectively.

Consider `Fc1cccc(COc2ccc(Nc3cc(-c4cccnc4)ncn3)cc2Cl)c1`, for which the IC50 was over 100 µM in series [1] and 47 µM in series [2].

The solubility is how much of the substance goes into solution per volume. `CS(=O)(=O)CCNCc1ccc(-c2ccc3ncnc(Nc4ccc(OCc5cccc(F)c5)c(Cl)c4)c3c2)o1.Cc1ccc(S(=O)(=O)O)cc1.Cc1ccc(S(=O)(=O)O)cc1.O` [LAPATINIB DITOSYLATE]: in series [3], the 50% inhibitory concentration (IC50) came to 0.1 µM. Besides, the solubility in series [5] (buffer) came to 24 µM. In series [4], this compound yielded a logP of 6.67.

With `C/C(=C\c1c(C)ncnc1Nc1ccc(OCc2cccc(F)c2)c(Cl)c1)C(=O)NCCN1CCOCC1`, the IC50 in series [1] is 0.081 µM; in series [2], 0.028 µM.

Regarding `Cc1ncnc(Nc2ccc(OCc3cccc(F)c3)c(Cl)c2)c1C#CCCNCc1ccccc1`, the IC50 worked out at 0.81 µM in series [1] and 0.27 µM in series [2].

With `Cc1ncnc(Nc2ccc(OCc3cccc(F)c3)c(Cl)c2)c1/C=C(\F)C(=O)NCCS(C)(=O)=O`, the concentration for half-maximal inhibition (IC50) in series [1] amounted to 0.071 µM; in series [2] it was 0.019 µM.

For `Cc1ncnc(Nc2ccc(OCc3cccc(F)c3)c(Cl)c2)c1/C=C/c1ccc(CN2CCOCC2)cc1.Cl`, the solubility in series [5] (aqueous, read-out: solubility) is 2 µM.

Take `CCN1CCN(CCCC#Cc2c(C)ncnc2Nc2ccc(OCc3cccc(F)c3)c(Cl)c2)CC1`: the concentration for half-maximal inhibition (IC50) came to 0.036 µM in series [1], 0.009 µM in series [2] and 1.44 µM in series [3]. Besides, the solubility in series [5] (aqueous, read-out: solubility) is over 50 µM. Further, the logP in series [4] came out at 6.23.

Regarding `Cc1ncnc(Nc2ccc(OCc3cccc(F)c3)c(Cl)c2)c1/C=C(\F)C(=O)NCCN1CCCC1`, the IC50 is 0.019 µM in series [1], 0.003 µM in series [2] and 1.13 µM in series [3]. Moreover, in series [5] (aqueous, read-out: solubility), the solubility was over 50 µM. For the same compound, in series [4], the logP stood at 5.98.

`Cc1ncnc(Nc2ccc(OCc3cccc(F)c3)c(Cl)c2)c1C#Cc1ccc(CN2CCOCC2)cc1`: the figures for the IC50 in series [1], in series [2] and in series [3] were 0.44 µM, 0.24 µM and 0.394 µM, respectively. Besides, in series [5] (aqueous, read-out: solubility), the solubility is over 50 µM. This compound also returned a logP in series [4] of 6.96.

For the compound `Cc1cc(Nc2ccc(OCc3cccc(F)c3)c(Cl)c2)ncn1`, the results for the IC50 in series [1] and in series [2] were 6.5 µM and 1.1 µM, respectively.
